{"source": "patent US20080249077A1", "about": "“17.Beta.-Fluoromethoxycarbonyl-Androst-4-En-3-One Compounds With a 17.Alpha.-Carbonate Sustituent” (priority 2005, published 2008)", "data": [{"molecular_target": "T1, glucocorticoid receptor (Homo sapiens, UniProt P04150)", "T1 construct": "A549 cells stably transfected with a reporter gene; endogenous in cells; host or cells: A549 cells", "T1 sequence (P04150 1-777)": "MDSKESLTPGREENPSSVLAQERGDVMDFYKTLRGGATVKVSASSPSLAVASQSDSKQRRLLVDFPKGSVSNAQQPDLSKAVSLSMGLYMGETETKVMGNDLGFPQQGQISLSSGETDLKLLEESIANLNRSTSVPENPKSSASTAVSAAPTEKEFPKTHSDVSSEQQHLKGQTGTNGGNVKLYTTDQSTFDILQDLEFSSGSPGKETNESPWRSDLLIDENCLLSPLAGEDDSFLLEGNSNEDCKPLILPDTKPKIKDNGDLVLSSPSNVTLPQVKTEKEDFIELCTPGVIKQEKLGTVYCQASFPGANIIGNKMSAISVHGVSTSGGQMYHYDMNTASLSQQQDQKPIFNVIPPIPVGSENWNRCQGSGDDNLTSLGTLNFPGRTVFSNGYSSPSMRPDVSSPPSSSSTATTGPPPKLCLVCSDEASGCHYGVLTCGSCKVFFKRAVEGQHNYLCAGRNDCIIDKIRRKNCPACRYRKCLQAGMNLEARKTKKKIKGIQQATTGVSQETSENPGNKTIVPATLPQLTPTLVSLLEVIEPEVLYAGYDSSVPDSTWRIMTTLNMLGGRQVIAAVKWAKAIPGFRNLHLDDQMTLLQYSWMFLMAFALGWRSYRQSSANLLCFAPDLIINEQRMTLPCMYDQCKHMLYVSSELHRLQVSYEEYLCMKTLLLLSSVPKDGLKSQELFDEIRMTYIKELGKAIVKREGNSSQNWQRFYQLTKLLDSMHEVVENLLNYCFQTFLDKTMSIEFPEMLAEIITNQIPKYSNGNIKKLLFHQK", "assay": "Assay for transactivation activity of the glucocorticoid agonists (MMTV-LTR renilla luciferase reporter in A549 cells)", "format": "cell-based", "settings": "compound 6 hour at 37° C., read-out: maximal response relative to Dexamethasone (100%) (transactivation)", "procedure": "Assay for Transactivation Activity of the Glucocorticoid Agonists\nThe functional assay based on that described by R. J. H. Austin et al., Eur Resp J. (2002), 20, 1386-1392 measures the ability of compounds to directly transactivate gene expression. A549 cells stably transfected with a reporter gene containing the glucocorticoid responsive region of the mouse mammary tumour virus long terminal repeat (MMTV-LTR) coupled to renilla luciferase were treated with test compounds at appropriate doses for 6 hour at 37° C. The amount of luciferase activity present within the cells is then determined by measuring the light emitted following incubation with a suitable substrate. Dose response curves were constructed from which EC50 values were estimated and from which maximal responses are calculated relative to Dexamethasone (100%).", "units": {"Emax": "%"}, "values": [{"smiles": "CC[C@H]1CC[C@@H](OC(=O)O[C@]2(C(=O)OCF)[C@H](C)C[C@H]3[C@@H]4C[C@H](F)C5=CC(=O)C=C[C@]5(C)[C@@]4(F)[C@@H](O)C[C@@]32C)CC1", "note": "(relative stereo) [Example 36, Fluoromethyl(6α,11β,16α,17α)-17-({[(cis-4-ethylcyclohexyl)oxy]carbonyl}oxy)-6,9-difluoro-11-hydroxy-16-methyl-3-oxoandrosta-1,4-diene-17-carboxylate]", "Emax": "< 25"}, {"smiles": "CC[C@H]1CC[C@H](OC(=O)O[C@]2(C(=O)OCF)[C@H](C)C[C@H]3[C@@H]4C[C@H](F)C5=CC(=O)C=C[C@]5(C)[C@@]4(F)[C@@H](O)C[C@@]32C)CC1", "note": "(relative stereo) [Example 37, Fluoromethyl(6α,11β,16α,17α)-17-({[(trans-4-ethylcyclohexyl)oxy]carbonyl}oxy)-6,9-difluoro-11-hydroxy-16-methyl-3-oxoandrosta-1,4-diene-17-carboxylate]", "Emax": "< 25"}, {"smiles": "CCC(CC)OC(=O)O[C@]1(C(=O)OCF)[C@H](C)C[C@H]2[C@@H]3C[C@H](F)C4=CC(=O)C=C[C@]4(C)[C@@]3(F)[C@@H](O)C[C@@]21C", "note": "[Example 4, Fluoromethyl(6α,11β,16α,17α)-17-({[(1-ethylpropyl)oxy]carbonyl}oxy)-6,9-difluoro-11-hydroxy-16-methyl-3-oxoandrosta-1,4-diene-17-carboxylate]", "Emax": "< 25"}, {"smiles": "C[C@@H]1C[C@H]2[C@@H]3C[C@H](F)C4=CC(=O)C=C[C@]4(C)[C@@]3(F)[C@@H](O)C[C@]2(C)[C@@]1(OC(=O)OCC(C)(C)C)C(=O)OCF", "note": "[Example 7, Fluoromethyl(6α,11β,16α,17α)-17-({[(2,2-dimethylpropyl)oxy]carbonyl}oxy)-6,9-difluoro-11-hydroxy-16-methyl-3-oxoandrosta-1,4-diene-17-carboxylate]", "Emax": "< 25"}, {"smiles": "CC1CCCCC1OC(=O)OC1(C(=O)OCF)C(C)CC2C3CC(F)C4=CC(=O)C=CC4(C)C3(F)C(O)CC21C", "note": "(stereo not drawn) [Example 10, Fluoromethyl(6α,11β,16α,17α)-6,9-difluoro-11-hydroxy-16-methyl-17-[({[(1SR,2RS)-2-methylcyclohexyl]oxy}carbonyl)oxy]-3-oxoandrosta-1,4-diene-17-carboxylate]", "Emax": "< 25"}, {"smiles": "CC(C)C1CCC(OC(=O)O[C@]2(C(=O)OCF)[C@H](C)C[C@H]3[C@@H]4C[C@H](F)C5=CC(=O)C=C[C@]5(C)[C@@]4(F)[C@@H](O)C[C@@]32C)CC1", "note": "(stereo partly drawn) [Example 11, Fluoromethyl(6α,11β,16α,17α)-6,9-difluoro-11-hydroxy-16-methyl-17-[({[4-(1-methylethyl)cyclohexyl]oxy}carbonyl)oxy]-3-oxoandrosta-1,4-diene-17-carboxylate]", "Emax": "< 25"}, {"smiles": "CC1CC2C3CC(F)C4=CC(=O)C=CC4(C)C3(F)C(O)CC2(C)C1(OC(=O)OC1CC2CCC1C2)C(=O)OCF", "note": "(stereo not drawn) [Example 12, Fluoromethyl(6α,11β,16α,17α)-17-({[(1RS,2RS,4SR)-bicyclo[2.2.1]hept-2-yloxy]carbonyl}oxy)-6,9-difluoro-11-hydroxy-16-methyl-3-oxoandrosta-1,4-diene-17-carboxylate]", "Emax": "< 25"}, {"smiles": "C[C@@H]1C[C@H]2[C@@H]3C[C@H](F)C4=CC(=O)C=C[C@]4(C)[C@@]3(F)[C@@H](O)C[C@]2(C)[C@@]1(OC(=O)OC1CCCCCCC1)C(=O)OCF", "note": "[Example 16, Fluoromethyl(6α,11β,16α,17α)-17-{[(cyclooctyloxy)carbonyl]oxy}-6,9-difluoro-11-hydroxy-16-methyl-3-oxoandrosta-1,4-diene-17-carboxylate]", "Emax": "< 25"}, {"smiles": "C[C@@H]1C[C@H](C)C[C@H](OC(=O)O[C@]2(C(=O)OCF)[C@H](C)C[C@H]3[C@@H]4C[C@H](F)C5=CC(=O)C=C[C@]5(C)[C@@]4(F)[C@@H](O)C[C@@]32C)C1", "note": "[Example 17, Fluoromethyl(6α,11β,16α,17α)-17-[({[(1S,3R,5S)-3,5-dimethylcyclohexyl]oxy}carbonyl)oxy]-6,9-difluoro-11-hydroxy-16-methyl-3-oxoandrosta-1,4-diene-17-carboxylate]", "Emax": "< 25"}]}]}
